The values below come from PubChem BioAssay (NCI).

Several values for one entry are separate records, joined by “and”; a condition that tells them apart may be missing. Equal entries are not always repeated.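 The compound was tested at five concentrations on cells cultured in 96-well plates, with a 48-hour exposure period. At the GI50, growth is halved. At the TGI there is no net growth.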

Some test systems named below: NCI-H226 lung; NCI-H23 lung; OVCAR-8 ovarian; SNB-19 CNS; SNB-75 CNS; SW-620 colon; UACC-62 melanoma.
Common to all, as to experiment: NCI tumour cell line growth inhibition, 48 h

Consider `CC1=CC(=O)/C(=C/n2c(=S)[nH]c3cc(C)ccc32)C(=O)O1`, for which the TGI in the test with NCI-H226 lung, in the test on NCI-H23 lung, with OVCAR-8 ovarian, in the test on SNB-19 CNS, in the test with SNB-75 CNS and in the test on SW-620 colon was more than 100 µM each time. This compound also came in with a TGI with UACC-62 melanoma of more than 100 µM.

As to `C[C@]12CC[C@H](O)CC1=CC[C@@H]1[C@@H]2CC[C@]2(C)C(=O)/C(=C/c3ccc([N+](=O)[O-])cc3)C[C@@H]12`, the TGI with NCI-H226 lung was 10.2 µM; with NCI-H23 lung, 57 µM; in the test with OVCAR-8 ovarian it was 12.3 µM; in the test with SNB-19 CNS, 27.8 µM; in the test with SNB-75 CNS it was 9.67 µM; in the test with SW-620 colon it was more than 100 µM. In the test on UACC-62 melanoma, the TGI is more than 100 µM.

Regarding `C=CCOCn1ccc(N)nc1=O`, the TGI in the test on NCI-H226 lung, with NCI-H23 lung, with OVCAR-8 ovarian, in the test with SNB-19 CNS, in the test on SNB-75 CNS and in the test on SW-620 colon was more than 100 µM throughout. In addition, the TGI in the test with UACC-62 melanoma is more than 100 µM.

Regarding `CCOC(=O)C(NC(=O)CC)(Nc1ccc(S(=O)(=O)Nc2ccc(OC)nn2)cc1)C(F)(F)F` (configuration not stated), the TGI in the test on NCI-H226 lung, with NCI-H23 lung, in the test on OVCAR-8 ovarian, with SNB-19 CNS, with SNB-75 CNS and with SW-620 colon was more than 100 µM each time. Moreover, the TGI with UACC-62 melanoma was more than 100 µM.

As to `O=C1CCC2(c3ccc(Cl)cc3)Nc3ncncc3N12` (configuration not stated), the TGI in the test with NCI-H226 lung, in the test on NCI-H23 lung, with OVCAR-8 ovarian, in the test with SNB-19 CNS, in the test on SNB-75 CNS and in the test with SW-620 colon was more than 10 µM each time. The compound further returned a TGI in the test on UACC-62 melanoma of more than 10 µM.

`CCC(=O)N1C(=O)C(CC)(CC)C(=O)N1C(=O)CC`: the TGI in the test with NCI-H226 lung, with NCI-H23 lung, in the test with OVCAR-8 ovarian, with SNB-19 CNS, in the test on SNB-75 CNS and in the test on SW-620 colon was more than 100 µM each time. This compound came in with a TGI in the test with UACC-62 melanoma of more than 100 µM.

Take `CCN(CC)C1Oc2cc3c(cc2C(c2cccc(OC)c2O)C1C)OCO3` (configuration not stated): the TGI with NCI-H226 lung was 13.3 µM; in the test with NCI-H23 lung it was 43.5 µM; with OVCAR-8 ovarian, more than 80.8 µM; in the test with SNB-19 CNS it was 31.4 µM; in the test with SNB-75 CNS it was 23.1 µM; with SW-620 colon, 35.4 µM. Further, the TGI in the test with UACC-62 melanoma came out at 28.5 µM.

With `COc1cc2[nH]c(=O)c3cc(C)cc4c(Cl)nc(c1OC)c2c43`, the TGI in the test on NCI-H226 lung is more than 100 µM; in the test with NCI-H23 lung, more than 100 µM; in the test on OVCAR-8 ovarian, more than 100 µM; in the test on SNB-19 CNS, more than 100 µM; in the test with SNB-75 CNS it was 85.3 µM; in the test with SW-620 colon, more than 100 µM. The TGI with UACC-62 melanoma came out at 96 µM.

With `Cn1c(COC(=O)NC2CCCCC2)c(COC(=O)NC2CCCCC2)c2ccc3cc(C=O)ccc3c21`, the TGI in the test on NCI-H226 lung was more than 100 µM; in the test with NCI-H23 lung, more than 100 µM; in the test on OVCAR-8 ovarian, more than 100 µM; in the test on SNB-19 CNS it was more than 100 µM; in the test with SNB-75 CNS, 60.8 µM; in the test on SW-620 colon, more than 100 µM. In the test on UACC-62 melanoma, this compound returned a TGI of more than 100 µM.

For the compound `Cc1c2oc3c(C)cc(F)c(C(=O)NC4C(=O)NC(C(C)C)C(=O)N5CCCC5C(=O)N(C)CC(=O)N(C)C(C(C)C)C(=O)OC4C)c3nc-2c(C(=O)NC2C(=O)NC(C(C)C)C(=O)N3CCCC3C(=O)N(C)CC(=O)N(C)C(C(C)C)C(=O)OC2C)c(N)c1=O` (configuration not stated), the TGI in the test on NCI-H226 lung is 0.625 µM and 0.346 µM; in the test with NCI-H23 lung, 0.897 µM and 6.26 µM; in the test with SNB-19 CNS, 21.1 µM; in the test with SNB-75 CNS it was 1.9 µM and 1.75 µM; with SW-620 colon, 3.77 µM; with UACC-62 melanoma, 0.492 µM and 0.154 µM. For the same compound, the results for the GI50 in the test on OVCAR-8 ovarian and in the test on SNB-75 CNS were 0.142 µM and 0.121 µM, respectively.

Take `Cc1c2cccc-2c(OCCOC(=O)n2ccnc2)cc2c1[nH]c1ccccc12`: the TGI with NCI-H226 lung worked out at 8.13 µM; in the test on NCI-H23 lung, 6.31 µM; in the test on OVCAR-8 ovarian, 5.22 µM; with SNB-19 CNS, 5.97 µM; in the test on SNB-75 CNS, 3.02 µM; with SW-620 colon, 14.4 µM. Moreover, the TGI with UACC-62 melanoma came out at 6.63 µM.

Turning to `COc1cc(S(=O)(=O)Nc2ccc(-c3csc(N4C(=O)C(C)SC4c4ccccc4)n3)cc2)ccc1Cl` (configuration not stated), the TGI in the test on NCI-H226 lung is more than 100 µM; with NCI-H23 lung it was more than 100 µM; in the test with OVCAR-8 ovarian, more than 100 µM; in the test on SNB-19 CNS, more than 100 µM; in the test on SNB-75 CNS, 32.7 µM; in the test on SW-620 colon, more than 100 µM. The same compound returned a TGI in the test on UACC-62 melanoma of 52.8 µM.

`COc1ccc(N2N=NN(C(C)C)/C2=C(/Cl)c2nnnn2-c2ccc(OC)cc2)cc1`: the TGI was 42.2 µM in the test with NCI-H226 lung; 33 µM in the test on NCI-H23 lung; 18 µM with OVCAR-8 ovarian; 31.6 µM in the test with SNB-19 CNS; 26.5 µM in the test with SNB-75 CNS; 3.96 µM in the test on SW-620 colon. The TGI with UACC-62 melanoma came to 28.7 µM.

In the case of `COc1ccc(N2C(=O)C3c4[nH]c5ccccc5c4C4c5ccccc5CC4C3C2=O)cc1` (configuration not stated), the TGI with NCI-H226 lung, with NCI-H23 lung, with OVCAR-8 ovarian, in the test on SNB-19 CNS, with SNB-75 CNS and in the test on SW-620 colon was more than 100 µM throughout. In the test on UACC-62 melanoma, this compound showed a TGI of more than 100 µM.

On to `Cc1ccc2c(=O)cc(Cc3csc4ccccc34)[nH]c2n1`, for which the TGI is 85.8 µM with NCI-H226 lung; 53.4 µM in the test with NCI-H23 lung; more than 100 µM with OVCAR-8 ovarian; more than 100 µM in the test on SNB-19 CNS; 79.6 µM in the test with SNB-75 CNS; more than 100 µM in the test on SW-620 colon. The compound further came in with a TGI in the test on UACC-62 melanoma of more than 100 µM.

In the case of `CCn1c(=O)c2c3ccc(OC)cc3[nH]c2c2ccc(OC)cc21`, the TGI was more than 100 µM in the test on NCI-H226 lung; more than 100 µM with NCI-H23 lung; more than 100 µM in the test with OVCAR-8 ovarian; more than 100 µM in the test on SNB-19 CNS; 96.1 µM in the test with SNB-75 CNS; more than 100 µM in the test on SW-620 colon. Further, the TGI with UACC-62 melanoma was more than 100 µM.

Regarding `COc1cc(/C=C/C(=N\NC(=S)NN)c2sc(NNC(C)=O)nc2C)ccc1O`, the TGI in the test on NCI-H226 lung, with NCI-H23 lung, with OVCAR-8 ovarian, in the test on SNB-19 CNS, in the test with SNB-75 CNS and in the test with SW-620 colon was more than 100 µM in each case. Further, the TGI with UACC-62 melanoma is more than 100 µM.

`CC(C)=CCC[C@@H](C)C1=CC(=O)C(C)=C(O)C1=O`: the TGI in the test with NCI-H226 lung worked out at 22.8 µM; in the test with NCI-H23 lung, 21.1 µM; with OVCAR-8 ovarian it was 4.83 µM; in the test with SNB-19 CNS it was 29.4 µM; in the test on SNB-75 CNS it was 14 µM; with SW-620 colon it was 33.5 µM. For the same compound, the TGI in the test on UACC-62 melanoma came to 24.1 µM.
